Values of other authors as cited in patent US20100172982A1, “SUSTAINED RELEASE FORMULATIONS OF DIVALPROEX SODIUM” (SUN PHARMACEUTICAL INDUSTRIES LIMITED, priority 2007, published 2010).

Details: children

In the case of CCCC(CCC)C(=O)O [valproic acid, 2-propylpenatnoic acid], the elimination half-life is given as “four and fourteen”.
